Tests used:
[1] = tested on: U87-DG cells; assay: Evaluation of anticancer drug resistance: cell viability with doxorubicin, U87-DG cells (chip cells); format: cell-based; settings: Homo sapiens; U87-DG cells (chip cells) cultured with Death galaxy chip under doxorubicin gradient; 72 h culture; living cell count; non-linear regression
Text: In the Death galaxy chip, for 7 days, U87 cells derived from human primary glioblastoma were exposed to an anticancer drug such as doxorubicin according to a concentration gradient, and a hexagonal microchamber array was removed from a surface of the living cells (U87-DG cells)-attached cell culture plate. The inventors trypsinized the U87-DG cells to analyze the characteristic of phenotypes thereof, collected the cells, and transferred them to a new culture plate to culture the cells in a normal growth medium (MEM) for one week.
(§1) 3,000 cells (U87 and U87-DG cells) were seeded into a 96-well plate in 200 μl of an MEM medium containing doxorubicin at various concentrations (0, 0.005, 0.01, 0.02, 0.05, 0.1, 0.2, 0.5, 0.75, and 1 μM). After seventy-two hours of culturing, the number of living cells in each well was calculated. Cell viability was calculated by dividing the number of living cells in a doxorubicin-contained well by the number of living cells in a doxorubicin-free well. After plotting a concentration of doxorubicin with respect to cell viability, IC50 was estimated through non-linear regression analysis using Graphpad Prism (GraphPad Software, Inc., La Jolla, Calif. USA).

[2] = tested on: U87 cells; assay: Evaluation of anticancer drug resistance: cell viability with doxorubicin, U87 cells (WT cells); format: cell-based; settings: Homo sapiens, U-87 MG; U87 cells (WT cells) cultured in general medium; 72 h culture; living cell count; non-linear regression
Procedure: as §1

IC50 [2]: 50 nM
SMILES: COc1cccc2c1C(=O)c1c(O)c3c(c(O)c1C2=O)C[C@@](O)(C(=O)CO)C[C@@H]3O[C@H]1C[C@H](N)[C@H](O)[C@H](C)O1 [doxorubicin]
IC50 [1]: 1470 nM

Source: US20180290138A1, “MICROFLUIDIC CHIP FOR SCREENING ANTICANCER DRUG RESISTANT CELLS AND USE THEREOF” (RESEARCH & BUSINESS FOUNDATION SUNGKYUNKWAN UNIVERSITY, priority 2015, published 2018)
